Data from PubChem BioAssay AID1996.
≈ marks a conversion by molar mass, not a printed value.

Settings: buffer; pH 7.4; 200.0 µM
`O=c1cc(O)c2sc(Nc3cccc(C(F)(F)F)c3)nc2[nH]1` showed a solubility kinetic of 36.9 µg/mL (≈ 113 µM). In the case of `CNc1nc(N)c(C(=O)Nc2cc(C)on2)s1`, the solubility kinetic is reported as 35.4 µg/mL (≈ 140 µM). `N#Cc1c(-c2cccs2)cc(-c2cccs2)[nH]c1=O` showed a solubility kinetic of 0.7 µg/mL (≈ 2.46 µM). In the case of `O=C(COC(=O)c1cccc(F)c1)NCCC1=CCCCC1`, the solubility kinetic is reported as 9.5 µg/mL (≈ 31.1 µM). For `O=[N+]([O-])c1ccc(S(=O)(=O)Nc2nc(-c3ccccc3)cs2)cc1`, the solubility kinetic was greater than 54.2 µg/mL. Compound `CCC(=O)NCc1ccc2[nH]c(C)cc2c1` has a solubility kinetic of 32.3 µg/mL (≈ 149 µM). `Cn1cccc1/C=C1/C(=O)NC(=O)N(Cc2ccc(F)cc2)C1=O` gave a solubility kinetic of 5.4 µg/mL (≈ 16.5 µM). With `O=C(O)CCNc1ccc(Cl)cc1` the solubility kinetic was greater than 29.9 µg/mL. For `CC(C)c1ccc(NC(=O)CNCC(c2ccccc2)N(C)C)cc1` (stereo not given), the solubility kinetic was 32.9 µg/mL (≈ 96.9 µM). `COc1ccc(-c2ccc(CCC(=O)O)n2-c2ccccc2O)cc1` gave a solubility kinetic greater than 50.6 µg/mL. `Cc1cc(C)c(NC(=O)COC(=O)C23CC4CC(CC(O)(C4)C2)C3)c(Cl)c1` showed a solubility kinetic greater than 58.8 µg/mL. `CN(C(=O)COC(=O)c1ccc2c(c1)OCO2)C1CCCCC1` showed a solubility kinetic greater than 47.9 µg/mL. With `CC(C)/C=C1\CCc2c([nH]c3ccccc23)C1=O` the solubility kinetic was 1.5 µg/mL (≈ 6.27 µM). `CC(C)OCCCNC(=O)C1CC(=O)N(CCc2ccccc2)C1` (stereo not given) gave a solubility kinetic of 48.9 µg/mL (≈ 147 µM). `Cc1ccccc1Nc1nc(N)nc(CCl)n1` gave a solubility kinetic greater than 37.5 µg/mL. For `Cc1cccc(OCCCN2C(=O)C(=O)c3cc(C)ccc32)c1`, the solubility kinetic was 10.7 µg/mL (≈ 34.6 µM). `CC(NC(=O)CCNC(=O)c1ccco1)c1ccc(F)cc1` (stereo not given) showed a solubility kinetic greater than 45.6 µg/mL. Work on `Cc1ccc(CNC(=O)CSc2nc3ccccc3[nH]2)cc1` yielded a solubility kinetic of 31.1 µg/mL (≈ 99.9 µM). Compound `O=C(c1ccccn1)N1CCN(c2cccc(C(F)(F)F)c2)CC1` has a solubility kinetic greater than 50.3 µg/mL. `Cc1cccc(OCCSc2nc3ncnc(N)c3[nH]2)c1` showed a solubility kinetic of 1.5 µg/mL (≈ 4.98 µM). In the case of `COc1ccc(OC)c(-c2cc(C(=O)N3CCOCC3)no2)c1`, the solubility kinetic is reported as greater than 47.7 µg/mL. Compound `CCc1c(C)nc(SCC(=O)N2CCCCC2CC)[nH]c1=O` (stereo not given) has a solubility kinetic of 44.6 µg/mL (≈ 138 µM). Work on `COC(=O)c1cccc(NC(=S)Nc2ccccc2Cl)c1` yielded a solubility kinetic of 41.4 µg/mL (≈ 129 µM). Compound `Cc1cccc(NC(=S)N2CCCCC2c2cccnc2)c1C` (stereo not given) has a solubility kinetic greater than 48.8 µg/mL. `Nc1nonc1C(=O)N1CCCCC1` gave a solubility kinetic of 28.2 µg/mL (≈ 144 µM). With `O=C(COC(=O)c1cccnc1Cl)NCC1CCCO1` (stereo not given) the solubility kinetic was greater than 44.8 µg/mL. In the case of `CN1C(=O)N(C)C(c2ccccc2Cl)C2=C1CC(C)(C)CC2=O` (stereo not given), the solubility kinetic is reported as greater than 49.9 µg/mL. Work on `O=c1c2cc([N+](=O)[O-])ccc2nc2n1CCCC2` yielded a solubility kinetic greater than 36.8 µg/mL. Compound `Cc1c(C)n(CCCN(C)C)c2ncnc(NC3CCCCC3)c12` has a solubility kinetic of 46.9 µg/mL (≈ 142 µM). Compound `N/C(=N\OC(=O)CCCc1ccccc1)c1ccccc1Cl` has a solubility kinetic of 11.4 µg/mL (≈ 36 µM). For `CCC1(CC)Cc2ccccc2-c2[nH]c(=S)[nH]c(=O)c21`, the solubility kinetic was 27.3 µg/mL (≈ 95.3 µM). With `COC(=O)/C(C#N)=C/c1ccc(C)o1` the solubility kinetic was 20.7 µg/mL (≈ 108 µM). For `Cc1ccc(-c2c(NC(=O)C(C)C)n(C)c3ccccc3c2=O)cc1`, the solubility kinetic was 29.4 µg/mL (≈ 87.9 µM). With `Cc1[nH]c(=O)c(C#N)c(C)c1CSc1ncccn1` the solubility kinetic was greater than 40.8 µg/mL. In the case of `CC1CCCC(NC(=O)c2ccc3c(c2)OCO3)C1C` (stereo not given), the solubility kinetic is reported as greater than 41.3 µg/mL. In the case of `O=C(Nc1ccccc1Cc1ccccc1)c1ccccc1F`, the solubility kinetic is reported as 3.1 µg/mL (≈ 10.2 µM). Compound `CCCC(=O)Nc1ccc(NCc2ccc(C)s2)cc1` has a solubility kinetic greater than 43.3 µg/mL. In the case of `CN(CCO)c1nc(N)c(C#N)c(CC#N)c1C#N`, the solubility kinetic is reported as greater than 38.4 µg/mL. Compound `COc1ccc(N2C(=O)NC(=O)C2=O)cc1` has a solubility kinetic greater than 33 µg/mL. In the case of `Cc1ccc(C)c(S(=O)(=O)N2CCN(c3ncnc4sccc34)CC2)c1`, the solubility kinetic is reported as 5.6 µg/mL (≈ 14.4 µM). Work on `OCCN(Cc1ccccc1)c1ncnc2sccc12` yielded a solubility kinetic greater than 42.8 µg/mL. With `O=C(CN1C(=O)C2CC=CCC2C1=O)Nc1nc(-c2ccc(F)c(F)c2)cs1` (stereo not given) the solubility kinetic was 4.8 µg/mL (≈ 11.9 µM). Work on `Cc1ccc(N=C2C(=O)Nc3ccccc32)c(C)c1` yielded a solubility kinetic of 28.8 µg/mL (≈ 115 µM). `Cc1ccccc1CS(=O)(=O)CC(O)CN1CCCC1=O` (stereo not given) showed a solubility kinetic greater than 46.7 µg/mL. Work on `COC1CC(C)NC(=S)N1` (stereo not given) yielded a solubility kinetic greater than 24 µg/mL. `CCc1ccccc1NC(=S)N1CCN(c2cccc(OC)c2)CC1` showed a solubility kinetic of 2.2 µg/mL (≈ 6.19 µM). With `CC(C)OCCCNC1=C(Cl)C(=O)c2ccccc2C1=O` the solubility kinetic was 35.5 µg/mL (≈ 115 µM). With `O=C(Cc1c[nH]c2ccccc12)Nc1ccc(N2CCOCC2)cc1` the solubility kinetic was 10.1 µg/mL (≈ 30.1 µM). For `CCN1CCc2c(OCC(=O)Nc3ccc4c(c3)OCCO4)cccc2C1=O`, the solubility kinetic was 29.8 µg/mL (≈ 77.9 µM). Work on `Cc1c(Cl)cccc1NC(=O)CCN1CCN(C)CC1` yielded a solubility kinetic greater than 44.4 µg/mL. In the case of `Cc1nc2ccc([N+](=O)[O-])cc2c(=O)n1Cc1ccc([N+](=O)[O-])cc1`, the solubility kinetic is reported as 2.5 µg/mL (≈ 7.35 µM). For `N/C(=N\OC(=O)c1cccc2ccccc12)c1ccccn1`, the solubility kinetic was 38.2 µg/mL (≈ 131 µM). `COc1ccc(S(=O)(=O)n2c([N+](=O)[O-])cnc2C)c(C)c1C` showed a solubility kinetic of 45.2 µg/mL (≈ 139 µM). `C#CCOc1ccccc1/C=C1/C(=O)ON=C1C` gave a solubility kinetic of 34.9 µg/mL (≈ 145 µM). Compound `Cc1cccc(Nc2c([N+](=O)[O-])c(=O)oc3ccccc23)c1` has a solubility kinetic of less than 0.3 µg/mL. `Cc1ccc(S(=O)(=O)N2CCOCC2)cc1C(=O)OCC(=O)c1c(N)n(C)c(=O)n(C)c1=O` showed a solubility kinetic of 38.9 µg/mL (≈ 81 µM). For `Cc1cccc(N(O)C(=O)Nc2cccc(Cl)c2)c1`, the solubility kinetic was 10.2 µg/mL (≈ 36.9 µM). Compound `CS(=O)(=O)c1ccc2nc(NC(=O)C3CCCO3)sc2c1` (stereo not given) has a solubility kinetic of 43.8 µg/mL (≈ 134 µM). `Cc1ccccc1NC(=O)C1C2CCCCC21` (stereo not given) gave a solubility kinetic of 3.4 µg/mL (≈ 14.8 µM). For `OC(CNCc1ccc2c(c1)OCO2)COc1ccc(F)cc1` (stereo not given), the solubility kinetic was greater than 47.9 µg/mL.
